# Source: PMC2195872 (The Journal of Experimental Medicine, 2000)
# Molecular target: LTB4 receptor (Homo sapiens, UniProt Q15722)
# Assay: [3H]LTB4 competition radioligand binding on HEK293 cells
# Format: cell-based
# LTB4 receptor, sequence (Q15722 whole entry): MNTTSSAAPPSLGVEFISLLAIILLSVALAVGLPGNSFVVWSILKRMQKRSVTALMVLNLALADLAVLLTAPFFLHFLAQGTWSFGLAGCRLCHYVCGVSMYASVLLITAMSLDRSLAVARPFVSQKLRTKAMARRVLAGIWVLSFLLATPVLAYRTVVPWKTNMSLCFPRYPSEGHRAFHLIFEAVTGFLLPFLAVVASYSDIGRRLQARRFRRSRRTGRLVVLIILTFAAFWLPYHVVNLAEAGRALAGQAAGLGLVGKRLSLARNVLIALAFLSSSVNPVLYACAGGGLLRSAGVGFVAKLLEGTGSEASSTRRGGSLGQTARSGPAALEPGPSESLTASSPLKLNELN
smiles,measurement,value
CC/C=C\C/C=C\C[C@@H](O)/C=C/C=C/C=C\[C@@H](O)CCCC(=O)O [LTB5],IC50,~500 nM
